Data taken from patent US20250011318A1 (ARCUS BIOSCIENCES, INC., priority 2023, published 2025).

Legend:
Cbl-b = biological target: T1, Cbl-b (Homo sapiens, UniProt Q13191); experiment: Cbl-b probe displacement HTRF binding assay; conditions: 0.4 nM biotinylated Cbl-b, 150 nM BODIPY probe
T1 construct: biotin (biotinylated)
Experimental: The affinity with which compounds of the present disclosure bind to Cbl-b was assessed using probe displacement homologous time resolved fluorescence (HTRF) assays. The assays used a BODIPY™ conjugated probe (Example 54 from WO 2020264398) and biotinylated Cbl-b. The assays were performed in assay buffer consisting of 20 mM Hepes, 150 mM NaCl, 0.01% Triton X-100, 0.5 mM TCEP, 0.01% BSA. On the day of the assay, a 20 point, 1:2 master serial dilution of each compound was prepared in DMSO to span a final concentration range of 10 μM to 0 nM. Two hundred nanoliters of diluted compound was added to each well of a 384-well plate. Fifteen microliters of biotinylated—Cbl-b resuspended in assay buffer were added to each well and the plate incubated for 60 minutes at room temperature prior to addition of 5 μL of BODIPY™ probe in assay buffer. Final assay conditions included 0.4 nM of Cbl-b and 150 nM of BODIPY™ probe. After a further 15 minutes of incubation at room temperature, 5 μl of Streptavidin-Terbium cryptate reagent at 5-fold final concentration was added to each well of the 384-well plate. Binding of a probe to Cbl-b results in an increase of HTRF signal. HTRF signal was measured by Envision plate reader, while competition of a compound of the present disclosure with probe results in a decrease of signal. Percentage maximum activity in each test well was calculated based on DMSO (maximum activity, 0% displacement) and no protein control wells (baseline activity, 100% displacement). Binding affinity was determined from a dose response curve fitted using a standard four parameter fit equation. See Table 3 for data for compounds (Cbl-b Binding (IC50)).

Jurkat cells = experiment: IL-2 secretion assay in CD3/CD28-activated Jurkat cells (AlphaLISA); format: cell-based, human; conditions: Homo sapiens, CD3/CD28 T Cell Activator, 24 h, IL-2 AlphaLISA
Experimental: Certain compounds were also evaluated in an IL-2 secretion assay. On the day of the assay, a 16 point, 1:2 master serial dilution of each compound was prepared in Opti-MEM to span a final concentration range of 10 μM to 300 pM. Assays were setup in CORNING® tissue culture-treated 384-well microplates containing 60 nL of each dilution. Jurkat cells grown in RPMI-1640 supplemented with 10% FBS, 1% Glutamax, and 1% Pen/Strep were collected, resuspended in Opti-MEM. 50,000 cells/well and added to the compound plates. After a short spin (1200 rpm for 1 min), the plates were incubated at 37° C. for 1 hour. The cells were activated by adding 15 μL of IMUNOCULT™ Human CD3/CD28 T Cell Activator (STEMCELL Technologies) diluted in Opti-MEM. After 24 h of incubation at 37° C., aliquots of culture supernatants were transferred to OptiPlate-384 (PerkinElmer) microplates. The level of IL-2 secretion in the supernatants was then determined using the IL-2 (human) AlphaLISA Detection Kit (PerkinElmer) according to the manufacturer's recommendations. The AlphaLISA signal was measured using an EnVision plate reader (PerkinElmer). EC50 values were determined by fitting the data to a standard 4-parameter logistic equation. See Table 3 for data for select compounds (IL-2 Secretion (EC50)).

T1 sequence (Q13191 whole entry, species assumed): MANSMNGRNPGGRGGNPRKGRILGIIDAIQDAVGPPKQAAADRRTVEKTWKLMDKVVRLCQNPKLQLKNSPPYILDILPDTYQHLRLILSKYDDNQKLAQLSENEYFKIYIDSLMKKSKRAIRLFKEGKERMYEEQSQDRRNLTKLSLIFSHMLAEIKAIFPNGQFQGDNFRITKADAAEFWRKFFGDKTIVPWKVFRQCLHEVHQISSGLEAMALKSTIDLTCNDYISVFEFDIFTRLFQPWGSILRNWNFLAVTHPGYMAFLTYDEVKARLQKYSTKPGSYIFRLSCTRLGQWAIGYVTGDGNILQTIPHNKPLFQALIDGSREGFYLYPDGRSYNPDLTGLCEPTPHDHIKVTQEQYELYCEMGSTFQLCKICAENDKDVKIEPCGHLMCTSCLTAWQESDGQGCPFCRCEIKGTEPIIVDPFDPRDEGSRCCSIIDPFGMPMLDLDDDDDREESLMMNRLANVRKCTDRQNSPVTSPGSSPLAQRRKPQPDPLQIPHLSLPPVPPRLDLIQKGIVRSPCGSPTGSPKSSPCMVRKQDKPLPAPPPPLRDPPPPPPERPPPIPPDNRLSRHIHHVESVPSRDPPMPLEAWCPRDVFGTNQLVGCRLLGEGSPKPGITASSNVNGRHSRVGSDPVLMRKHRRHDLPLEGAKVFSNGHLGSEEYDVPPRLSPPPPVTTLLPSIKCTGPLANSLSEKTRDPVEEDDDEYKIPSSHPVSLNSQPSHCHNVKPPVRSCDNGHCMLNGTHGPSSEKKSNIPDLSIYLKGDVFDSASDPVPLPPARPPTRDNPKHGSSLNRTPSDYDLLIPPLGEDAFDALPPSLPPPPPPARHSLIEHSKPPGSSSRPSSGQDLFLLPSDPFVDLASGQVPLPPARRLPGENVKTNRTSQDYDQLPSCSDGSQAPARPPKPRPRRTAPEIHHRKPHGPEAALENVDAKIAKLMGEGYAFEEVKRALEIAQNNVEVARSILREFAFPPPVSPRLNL

SMILES | IC50 (Cbl-b) | EC50 (Jurkat cells)
CC(c1cc2c(S(C)(=O)=O)cn(-c3cc(-c4ccc(C#N)cc4-c4nccn4C)cc(C4CC4)n3)c(=O)c2[nH]1)N1CCC[C@H](C)C1 (mixture of isomers) [Example 101, 4-[2-(2-{1-[(S)-3-methyl-1-piperidyl]ethyl}-4-mesyl-7-oxo-1,6-dihydro-1,6-diaza-6-indenyl)-6-cyclopropyl-4-pyridyl]-3-(1-methyl-2-imidazolyl)benzonitrile] | < 100 nM | < 100 nM
Cn1cc(C#N)nc1-c1cc(F)ccc1-c1cc(C2CC2)nc(-n2cc(C(F)(F)F)c3nc([C@@H]4CCOC4)[nH]c3c2=O)c1 [Example 47, 2-[2-(2-{2-[(S)-Tetrahydro-3-furyl]-4-oxo-7-(trifluoromethyl)-3,5-dihydro-1,3,5-triaza-5-indenyl}-6-cyclopropyl-4-pyridyl)-5-fluorophenyl]-1-methyl-4-imidazolecarbonitrile] | < 100 nM | < 100 nM
Cc1c[nH]nc1-c1cc(C#N)ccc1-c1cc(C2CC2)nc(-n2cc(C3CC3)c3cc(CN4C[C@@H]5C[C@H]4CN5)[nH]c3c2=O)c1 [Example 18, 4-[2-cyclopropyl-6-[4-cyclopropyl-2-[[(1S,4S)-2,5-diazabicyclo[2.2.1]-heptan-2-yl]methyl]-7-oxo-1H-pyrrolo[2,3-c]pyridin-6-yl]pyridin-4-yl]-3-(4-methyl-1H-pyrazol-3-yl)benzonitrile] | < 100 nM | 1000 to 5000 nM
Cc1ccnn1-c1cc(F)ccc1-c1cc(C2CC2)nc(-n2cc(C3CC3)c3cc(CNC4(C)CCC4)[nH]c3c2=O)c1 [Example 140, 4-cyclopropyl-6-[6-cyclopropyl-4-[4-fluoro-2-(5-methylpyrazol-1-yl)phenyl]pyridin-2-yl]-2-[[(1-methylcyclobutyl)amino]methyl]-1H-pyrrolo[2,3-c]pyridin-7-one] | < 100 nM | 100 to 1000 nM
Cn1cnnc1-c1cc(F)ccc1-c1cc(C2CC2)nc(-n2cnc3cc(CC4CCCC4)[nH]c3c2=O)c1 [Example 121, 6-(cyclopentylmethyl)-3-[6-cyclopropyl-4-[4-fluoro-2-(4-methyl-1,2,4-triazol-3-yl)phenyl]pyridin-2-yl]-5H-pyrrolo[3,2-d]pyrimidin-4-one] | < 100 nM | 100 to 1000 nM
Cn1ccnc1-c1cc(F)ccc1-c1cc(C2CC2)nc(-n2cc(C#N)c3cc(CN4CC5(C4)CS(=O)(=O)C5)[nH]c3c2=O)c1 [Example 87, 6-{6-cyclopropyl-4-[4-fluoro-2-(1-methyl-2-imidazolyl)phenyl]-2-pyridyl}-2-{(2,2-dioxo-2λ^6-thia-6-aza-6-spiro[3.3]heptyl)methyl}-7-oxo-1,6-dihydro-1,6-diaza-4-indenecarbonitrile] | < 100 nM | < 100 nM
COCCNCc1cc2ncn(-c3cc(-c4ccc(F)cc4-n4nncc4CF)cc(C4CC4)n3)c(=O)c2[nH]1 [Example 138, 3-[6-cyclopropyl-4-[4-fluoro-2-[5-(fluoromethyl)triazol-1-yl]phenyl]pyridin-2-yl]-6-[(2-methoxyethylamino)methyl]-5H-pyrrolo[3,2-d]pyrimidin-4-one] | < 100 nM | < 100 nM
COc1cc(-c2ccc(F)cc2-c2nncn2C)cc(-n2cc(C3CC3)c3cc(CN4CCC[C@H](C)C4)[nH]c3c2=O)n1 [Example 8, 2-{[(S)-3-Methyl-1-piperidyl]methyl}-4-cyclopropyl-6-{4-[4-fluoro-2-(4-methyl-4H-1,2,4-triazol-3-yl)phenyl]-6-methoxy-2-pyridyl}-1,6-dihydro-1,6-diaza-7-indenone] | < 100 nM | < 100 nM
C[C@H]1CCCN(Cc2cc3c(C4CC4)cn(-c4cc(-c5ccc(C#N)cc5-c5nccn5C)cc(C(F)(F)F)n4)c(=O)c3[nH]2)C1 [Example 16, 4-[2-(2-{[(S)-3-methyl-1-piperidyl]methyl}-4-cyclopropyl-7-oxo-1,6-dihydro-1,6-diaza-6-indenyl)-6-(trifluoromethyl)-4-pyridyl]-3-(1-methyl-2-imidazolyl)benzonitrile] | < 100 nM | < 100 nM
C[C@H]1CCCN(Cc2cc3c(C4CC4)cn(-c4cc(-c5ccc(C#N)cc5-c5nccn5C(F)F)cc(C5CC5)n4)c(=O)c3[nH]2)C1 [Example 15, 4-[2-(2-{1[(S)-3-methyl-1-piperidyl]methyl}-4-cyclopropyl-7-oxo-1,6-dihydro-1,6-diaza-6-indenyl)-6-cyclopropyl-4-pyridyl]-3-[1-(difluoromethyl)-2-imidazolyl]benzonitrile] | < 100 nM | < 100 nM
Cn1ncnc1-c1cc(F)ccc1-c1cc(C2CC2)nc(-n2cnc3cc(CNC4(C)CCC4)[nH]c3c2=O)c1 [Example 120, 3-[6-cyclopropyl-4-[4-fluoro-2-(2-methyl-1,2,4-triazol-3-yl)phenyl]-pyridin-2-yl]-6-[[(1-methylcyclobutyl)amino]methyl]-5H-pyrrolo[3,2-d]pyrimidin-4-one] | < 100 nM | < 100 nM
Cn1cc(C#N)nc1-c1cc(F)ccc1-c1cc(C2CC2)nc(-n2cc(C(F)(F)F)c3nc([C@H]4CCOC4)[nH]c3c2=O)c1 [Example 48, 2-[2-(2-{2-[(R)-Tetrahydro-3-furyl]-4-oxo-7-(trifluoromethyl)-3,5-dihydro-1,3,5-triaza-5-indenyl}-6-cyclopropyl-4-pyridyl)-5-fluorophenyl]-1-methyl-4-imidazolecarbonitrile] | < 100 nM | < 100 nM
C[C@H]1CCCN(Cc2cc3c(C4CC4)cn(-c4cc(-c5ccc(F)cc5-c5nncn5C)ccn4)c(=O)c3[nH]2)C1 [Example 12, 2-{[(S)-3-Methyl-1-piperidyl]methyl}-4-cyclopropyl-6-{4-[4-fluoro-2-(4-methyl-4H-1,2,4-triazol-3-yl)phenyl]-2-pyridyl}-1,6-dihydro-1,6-diaza-7-indenone] | < 100 nM | 100 to 1000 nM
Cn1ccnc1-c1cc(F)ccc1-c1cc(C2CC2)nc(-n2cc(C3CC3)c3cc(CNC(C)(C)C)[nH]c3c2=O)c1 [Example 62, 2-[(tert-butylamino)methyl]-4-cyclopropyl-6-{6-cyclopropyl-4-[4-fluoro-2-(1-methyl-2-imidazolyl)phenyl]-2-pyridyl}-1,6-dihydro-1,6-diaza-7-indenone] | < 100 nM | < 100 nM
COCCCc1nc2c(C(F)(F)F)cn(-c3cc(-c4ccc(F)cc4-c4nncn4C)cc(C4CC4)n3)c(=O)c2[nH]1 [Example 41, 5-{6-Cyclopropyl-4-[4-fluoro-2-(4-methyl-4H-1,2,4-triazol-3-yl)phenyl]-2-pyridyl}-2-(3-methoxypropyl)-7-(trifluoromethyl)-3,5-dihydro-1,3,5-triaza-4-indenone] | < 100 nM | < 100 nM
C[C@H]1CCCN(Cc2cc3c(C4CC4)cn(-c4cc(-c5ccc(F)cc5-c5nccn5C)cc(C5CC5)n4)c(=O)c3[nH]2)C1 [Example 52, 2-{[(S)-3-methyl-1-piperidyl]methyl}-4-cyclopropyl-6-{6-cyclopropyl-4-[4-fluoro-2-(1-methyl-2-imidazolyl)phenyl]-2-pyridyl}-1,6-dihydro-1,6-diaza-7-indenone] | < 100 nM | < 100 nM
Cn1cnnc1-c1cc(F)ccc1-c1cc(C2CC2)nc(-n2cnc3cc(C(F)F)[nH]c3c2=O)c1 [Example 128, 3-[6-cyclopropyl-4-[4-fluoro-2-(4-methyl-1,2,4-triazol-3-yl)phenyl]-pyridin-2-yl]-6-(difluoromethyl)-5H-pyrrolo[3,2-d]pyrimidin-4-one] | < 100 nM | 100 to 1000 nM
COCCN(Cc1cc2ncn(-c3cc(-c4ccc(F)cc4-c4nncn4C)cc(C4CC4)n3)c(=O)c2[nH]1)CC(F)(F)F [Example 35, 6-{6-cyclopropyl-4-[4-fluoro-2-(4-methyl-4H-1,2,4-triazol-3-yl)phenyl]-2-pyridyl}-2-{[(2-methoxyethyl)(2,2,2-trifluoroethyl)amino]methyl}-1,6-dihydro-1,4,6-triaza-7-indenone] | < 100 nM | 100 to 1000 nM
